The target of the assay is T1, ASIC1a (Homo sapiens, UniProt P78348).
T1 sequence (P78348 1-528): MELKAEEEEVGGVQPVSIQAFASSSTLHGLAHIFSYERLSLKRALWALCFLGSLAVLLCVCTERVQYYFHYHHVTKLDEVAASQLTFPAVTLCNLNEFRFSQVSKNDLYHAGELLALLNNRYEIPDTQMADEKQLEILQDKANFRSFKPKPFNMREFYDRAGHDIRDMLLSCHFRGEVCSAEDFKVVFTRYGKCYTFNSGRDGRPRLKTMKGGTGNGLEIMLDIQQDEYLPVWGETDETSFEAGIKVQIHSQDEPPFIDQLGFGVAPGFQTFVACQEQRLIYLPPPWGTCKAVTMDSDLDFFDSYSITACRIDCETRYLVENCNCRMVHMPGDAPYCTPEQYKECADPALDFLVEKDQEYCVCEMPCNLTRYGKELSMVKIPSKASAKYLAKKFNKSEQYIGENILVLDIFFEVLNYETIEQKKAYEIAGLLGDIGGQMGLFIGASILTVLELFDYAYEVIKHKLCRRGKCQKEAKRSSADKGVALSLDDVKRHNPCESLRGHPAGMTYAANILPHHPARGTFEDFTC
Kind of assay: Whole cell patch clamp in heterologous expression system (CHO cells). The assay is classed as cell-based. The arrangement: expressed in transfected cells; host or cells: CHO cells. As to the method:
Another example of an in vitro assessment method consists of using mammalian heterologous expression systems, which are known to the skilled in the art, and include a variety of mammalian cell lines such as COS, HEK, e.g., HEK293 and/or CHO, cells. Cell lines are transfected with gated ion channel(s) and used to perform electrophysiology as follows:
All experiments are performed at room temperature (20-25° C.) in voltage clamp using conventional whole cell patch clamp methods (Neher, E., et al. (1978) Pfluegers Arch 375:219-228).
The amplifier used is the EPC-9 (HEKA-electronics, Lambrect, Germany) run by a Macintosh G3 computer via an ITC-16 interface. Experimental conditions are set with the Pulse-software accompanying the amplifier. Data is low pass filtered and sampled directly to hard-disk at a rate of 3 times the cut-off frequency.
Pipettes are pulled from borosilicate glass using a horizontal electrode puller (Zeitz-lnstrumente, Augsburg, Germany). The pipette resistances are 2-3 MOhms in the salt solutions used in these experiments. The pipette electrode is a chloridized silver wire, and the reference is a silver chloride pellet electrode (In Vivo Metric, Healdsburg, USA) fixed to the experimental chamber. The electrodes are zeroed with the open pipette in the bath just prior to sealing.
Coverslips with the cells are transferred to a 15 μl experimental chamber mounted on the stage of an inverted microscope (IMT-2, Olympus) supplied with Nomarski optics. Cells are continuously superfused with extracellular saline at a rate of 2.5 ml/min. After giga-seal formation, the whole cell configuration is attained by suction. The cells are held at a holding voltage of −60 mV and at the start of each experiment the current is continuously measured for 45 s to ensure a stable baseline. […] Current amplitudes are measured at the peak of the responses, and effect of the compounds is calculated as the amplitude at compound equilibrium divided by the amplitude of the current evoked by the pulse just before the compound was included. […]
In general terms: In patch-clamp work, channel activity is measured electrically.

With `COc1ccc(F)cc1-c1cc2c(c3c1CCN(C)C3)NC(=O)C2=NO` [Compound A, 5-(5-fluoro-2-methoxyphenyl)-6,7,8,9-tetrahydro-3-(hydroxyimino)-8-methyl-1H-pyrrolo[3,2-h]isoquinoline-2(3H)-one], the “human ASIC1a pH-evoked response” value is given as “reduce the human ASIC1a pH-evoked response in CHO cells in a dose-dependent manner” and the “potency relative to amiloride on human ASIC1a pH-evoked response” value is given as “about 100 fold”.

The values above are taken from US20090246134A1, “COMPOSITIONS AND METHODS FOR MODULATING GATED ION CHANNELS” (PainCeptor Pharma Corporation, priority 2007, published 2009).
